Experimental data as given in publication PMC7503500, “A Structure-Activity Relationship Comparison of Imidazodiazepines Binding at Kappa, Mu, and Delta Opioid Receptors and the GABAA Receptor” (Molecules, 2020).
Like-named read-outs stand apart in the source and are kept apart here.

Key:
µ opioid receptor (MOR) = µ opioid receptor (MOR) (Homo sapiens, UniProt P35372); experiment: Radioligand competition binding, MOR ([3H]-DAMGO), HEK293 cell homogenates; conditions: [3H]-DAMGO; for inhibition at 10 µM: read-out: MOR % (percent inhibition), at 10,000 nM; for MOR % (percent inhibition): at 10,000 nM
δ opioid receptor (DOR) = δ opioid receptor (DOR) (Homo sapiens, UniProt P41143); experiment: Radioligand competition binding, DOR ([3H]-DADLE), HEK293 cell homogenates; conditions: for inhibition at 10 µM: read-out: DOR % (percent inhibition), at 10,000 nM; for DOR % (percent inhibition): at 10,000 nM
κ opioid receptor (KOR) = κ opioid receptor (KOR) (Homo sapiens, UniProt P41145); experiment: Radioligand competition binding, KOR ([3H]-U69593), HEK293 cell homogenates; conditions: for inhibition at 10 µM: read-out: KOR % (percent inhibition), at 10,000 nM; for inhibition at 10 µM / KOR % (percent inhibition): [3H]-U69593; for KOR % (percent inhibition): at 10,000 nM
[1] = system: synaptic benzodiazepine-sensitive receptors (BZR), GABAAR; experiment: 3H-flunitrazepam binding, rat brain homogenate; conditions: for BZR % (percent inhibition): at 10,000 nM; for Ki: read-out: BZR (Ki)
[2] = read-out: KOR (Ki), [3H]-U69593, HEK293 homogenates

Compound	inhibition at 10 µM (µ opioid receptor (MOR)) [%]	inhibition at 10 µM (δ opioid receptor (DOR)) [%]	Ki (κ opioid receptor (KOR)) [nM]	inhibition at 10 µM (κ opioid receptor (KOR)) [%]	BZR % (percent inhibition) [1] [%]	Ki [1] [nM]	KOR affinity (in words) (κ opioid receptor (KOR); screening at 10,000 nM)	MOR % (percent inhibition) (µ opioid receptor (MOR)) [%]	DOR % (percent inhibition) (δ opioid receptor (DOR)) [%]	KOR % (percent inhibition) (κ opioid receptor (KOR)) [%]	Ki (κ opioid receptor (KOR); [2]) [nM]	Affinity towards KOR as % of the GL-I-30-KOR binding affinity (κ opioid receptor (KOR)) [%]
C#Cc1ccc2c(c1)C(c1ccccc1F)=N[C@@H](C)c1c(C(=O)OCC(F)(F)F)ncn1-2 [GL-I-36]	8	0	411	85	77	418	–	–	–	–	–	–
Cc1ncoc1-c1ncn2c1CN=C(c1ccccn1)c1cc(Br)ccc1-2 [KRM-II-81]	7	15	–	46	86	294	insignificant KOR affinity	–	–	–	–	–
C#Cc1ccc2c(c1)C(c1ccccc1F)=N[C@@H](C)c1c(C(=O)OC)ncn1-2 [MP-III-021]	0	22	122	93	88	219	–	–	–	–	–	–
C[C@H]1N=C(c2ccccn2)c2cc(Br)ccc2-n2cnc(C(=O)O)c21 [GL-II-51]	0	0	–	11	84	181	–	–	–	–	–	–
C[C@H]1N=C(c2ccccc2F)c2cc(Br)ccc2-n2cnc(C(=O)N(C)C)c21 [GL-III-69]	0	10	511	75	100	446	–	–	–	–	–	–
C#Cc1ccc2c(c1)C(c1ccccc1F)=N[C@H](C)c1c(C(=O)OC)ncn1-2 [MP-III-004]	0	24	599	76	78	445	–	–	–	–	–	–
C#Cc1ccc2c(c1)C(c1ccccc1F)=N[C@@H](C)c1c(-c3nc(CC)no3)ncn1-2 [GL-I-66]	–	–	–	–	80	654	–	28	2	92	212	–
Cc1noc(-c2ncn3c2[C@@H](C)N=C(c2ccccc2F)c2cc(Br)ccc2-3)n1 [GL-III-60]	–	–	–	–	100	784	–	26	18	87	232	–
C#Cc1ccc2c(c1)C(c1ccccc1F)=N[C@@H](C)c1c(C(=O)NCC)ncn1-2 [GL-I-43]	22	3	102	95	94	44	–	–	–	–	–	–
C#Cc1ccc2c(c1)C(c1ccccn1)=N[C@H](C)c1c(C(=O)NC)ncn1-2 [GL-II-31]	17	3	–	23	72	1700	–	–	–	–	–	–
CCNC(=O)c1ncn2c1[C@@H](C)N=C(c1ccccc1F)c1cc(C3CC3)ccc1-2 [GL-III-68]	0	10	150	88	100	452	–	–	–	–	–	–
C#Cc1ccc2c(c1)C(c1ccccn1)=N[C@H](C)c1c(C(=O)O)ncn1-2 [GL-II-30]	20	4	–	0	65	431	–	–	–	–	–	–
C#Cc1ccc2c(c1)C(c1ccccn1)=NCc1c(-c3nc(CC)no3)ncn1-2 [MP-III-080]	0	0	–	47	88	303	–	–	–	–	–	–
CCOC(=O)c1ncn2c1[C@@H](C)N=C(c1ccccc1F)c1cc(C3CC3)ccc1-2 [GL-III-42]	–	–	–	86	62	726	–	0	13	–	–	–
CCOC(=O)c1ncn2c1[C@H](C)N=C(c1ccccc1F)c1cc(C3CC3)ccc1-2 [GL-I-78]	–	–	–	–	76	352	–	32	41	96	–	–
C#Cc1ccc2c(c1)C(c1ccccc1F)=N[C@H](C)c1c(C(N)=O)ncn1-2 [MP-III-019.B]	2	0	1530	62	94	54	–	–	–	–	–	–
C#Cc1ccc2c(c1)C(c1ccccn1)=N[C@H](C)c1c(C(=O)OC)ncn1-2 [GL-II-32]	32	0	–	35	63	1430	–	–	–	–	–	–

Compound	inhibition at 10 µM (µ opioid receptor (MOR)) [%]	inhibition at 10 µM (δ opioid receptor (DOR)) [%]	Ki (κ opioid receptor (KOR)) [nM]	inhibition at 10 µM (κ opioid receptor (KOR)) [%]	BZR % (percent inhibition) [1] [%]	Ki [1] [nM]	KOR affinity (in words) (κ opioid receptor (KOR); screening at 10,000 nM)	MOR % (percent inhibition) (µ opioid receptor (MOR)) [%]	DOR % (percent inhibition) (δ opioid receptor (DOR)) [%]	KOR % (percent inhibition) (κ opioid receptor (KOR)) [%]	Ki (κ opioid receptor (KOR); [2]) [nM]	Affinity towards KOR as % of the GL-I-30-KOR binding affinity (κ opioid receptor (KOR)) [%]
C#Cc1ccc2c(c1)C(c1ccccc1F)=N[C@@H](C)c1c(C(=O)OC3CC3)ncn1-2 [GL-I-38]	18	16	68	95	96	127	–	–	–	–	–	–
C#Cc1ccc2c(c1)C(c1ccccn1)=N[C@H](C)c1c(-c3nc(CC)no3)ncn1-2 [GL-II-54]	–	–	–	–	66	2040	–	0	0	80	504	–
C#Cc1ccc2c(c1)C(c1ccccc1F)=N[C@@H](C)c1c(C(=O)SCC)ncn1-2 [GL-I-77]	41	4	125	95	92	124	–	–	–	–	–	–
Cc1noc(-c2ncn3c2[C@@H](C)N=C(c2ccccn2)c2cc(C4CC4)ccc2-3)n1 [GL-III-64]	–	–	–	–	92	1490	–	7	14	60	2050	–
C#Cc1ccc2c(c1)C(c1ccccc1F)=N[C@@H](C)c1c(C(=O)OCCC)ncn1-2 [GL-I-32]	9	14	64	95	98	148	–	–	–	–	–	–
C#Cc1ccc2c(c1)C(c1ccccc1F)=N[C@@H](C)c1c(C(=O)NC3CC3)ncn1-2 [GL-I-55]	17	24	150	93	95	20	–	–	–	–	–	–
C#Cc1ccc2c(c1)C(c1ccccc1F)=N[C@H](C)c1c(C(=O)OCC)ncn1-2 [SH-053-2′F-R-CH3]	28	32	240	89	85	379	–	–	–	–	–	–
C#Cc1ccc2c(c1)C(c1ccccc1F)=NCc1c(-c3ocnc3C)ncn1-2 [KRM-III-65]	0	16	879	64	96	45	–	–	–	–	–	–
C#Cc1ccc2c(c1)C(c1ccccn1)=NCc1c(C(=O)OC)ncn1-2 [MP-III-024]	0	24	–	43	81	277	–	–	–	–	–	–
C#Cc1ccc2c(c1)C(c1ccccn1)=NCc1c(C(=O)OC(C)C)ncn1-2 [MP-II-068]	0	34	550	85	97	42	–	–	–	–	–	4.9
C#Cc1ccc2c(c1)C(c1ccccc1F)=N[C@H](C)c1c(C(=O)O)ncn1-2 [SH-053-2′F-R-CH3-Acid]	0	0	–	16	93	37	–	–	–	–	–	–
C#Cc1ccc2c(c1)C(c1ccccc1F)=N[C@H](C)c1c(C(=O)NCC)ncn1-2 [GL-II-74]	10	0	194	86	84	68	–	–	–	–	–	–
COC(=O)c1ncn2c1[C@@H](C)N=C(c1ccccc1F)c1cc(Br)ccc1-2 [MP-III-058]	0	4	237	84	86	290	–	–	–	–	–	–
C[C@H]1N=C(c2ccccc2F)c2cc(C3CC3)ccc2-n2cnc(C(=O)N(C)C)c21 [GL-III-70]	0	50	800	68	100	3400	–	–	–	–	–	–
C#Cc1ccc2c(c1)C(c1ccccn1)=NCc1c(C(=O)O)ncn1-2 [SR-II-54]	8	1	–	9	80	69	–	–	–	–	–	–
C#Cc1ccc2c(c1)C(c1ccccc1F)=N[C@H](C)c1c(-c3nc(C)no3)ncn1-2 [MP-IV-004]	–	–	–	–	63	1080	–	7	10	86	444	–
C#Cc1ccc2c(c1)C(c1ccccn1)=NCc1c(C(=O)OCC)ncn1-2 [Hz-166]	6	49	3820	60	–	–	–	–	–	–	–	–
